Measured values: patent US6355633B1, “Aryl sulfonic acids and derivatives as FSH antagonists” (American Home Products Corporation, priority 1999, dated 2002)

Assays:
[1] = tested on: FSH-induced changes in ovarian follicular maturation; experiment: Immature Rat Test Procedure (FSH-induced organ wet weight); assay type: in vivo; conditions: immature rats, twice daily for three days with half-maximal dose of hFSH; for IC50 (mg/Kg) ovaries: ovarian wet weight; for IC50 (mg/Kg) uterus: uterine wet weight
Procedure: Immature Rat Test Procedure
In order to assess the ability of compounds to affect FSH-induced changes in ovarian follicular maturation in vivo, immature rats (18 days of age) are treated twice daily for three days with compound in the presence of a half-maximal dose of purified human FSH. Animals are treated via the i.p. or p.o. routes. On the fourth day following treatment, animals are euthanized and the ovaries, uterus and spleen (the spleen is a control tissue that should not respond to FHS stimulation) collected for wet weight determination. In each experiment animals treated with vehicle alone or FSH alone are used as negative and positive controls, respectively.

FSH receptor [2] = molecular target: T1, FSH receptor (Homo sapiens, UniProt P23945); experiment: FSH Receptor Radioligand Membrane Binding Standard Pharmacological Test Procedure; design: expressed in transfected cells; conditions: [125I]FSH binding to membranes of CHO cells stably transfected with the human FSH receptor
T1 sequence (P23945 18-695): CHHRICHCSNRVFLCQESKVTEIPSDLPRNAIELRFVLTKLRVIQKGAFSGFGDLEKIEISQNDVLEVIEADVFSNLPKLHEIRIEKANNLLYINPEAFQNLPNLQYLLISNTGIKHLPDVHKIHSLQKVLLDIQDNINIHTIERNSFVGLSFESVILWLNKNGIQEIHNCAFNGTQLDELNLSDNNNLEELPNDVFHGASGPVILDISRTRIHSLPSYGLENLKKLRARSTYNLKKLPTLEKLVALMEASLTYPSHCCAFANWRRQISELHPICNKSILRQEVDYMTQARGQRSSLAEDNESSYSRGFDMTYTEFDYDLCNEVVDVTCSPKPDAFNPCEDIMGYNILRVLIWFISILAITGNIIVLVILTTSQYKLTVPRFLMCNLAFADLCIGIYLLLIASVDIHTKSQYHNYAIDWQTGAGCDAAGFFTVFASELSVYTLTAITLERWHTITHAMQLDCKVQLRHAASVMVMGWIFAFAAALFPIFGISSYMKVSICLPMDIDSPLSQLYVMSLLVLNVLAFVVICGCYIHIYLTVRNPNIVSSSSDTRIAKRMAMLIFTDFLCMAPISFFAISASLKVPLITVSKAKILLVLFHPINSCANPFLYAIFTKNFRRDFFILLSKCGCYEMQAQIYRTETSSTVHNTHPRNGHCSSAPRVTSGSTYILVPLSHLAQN
Outline: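 Membranes from CHO cells stably expressing human FSH receptor; compounds pre-incubated 15 min at room temperature, then [125I]FSH added (diluted to 200 pM before addition) for 2 h at room temperature in pH 7.2 Tris buffer with protease inhibitors and BSA. Bound radioactivity after filtration counted by gamma counter; non-specific binding defined with unlabelled human FSH.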

FSH receptor [3] = molecular target: T1, FSH receptor; experiment: In Vitro Bio-test Procedure of Agonists and Antagonists to the FSH Receptor (cAMP accumulation in CHO-3D2 cells); assay type: cell-based; design: expressed in transfected cells; host or cells: CHO-3D2 cells
Procedure: In Vitro Bio-test Procedure of Agonists and Antagonists to the FSH Receptor
The compounds were subsequently diluted in sterile procedure medium (Optimem (Gibco/BRL, Grand Island, N.Y.)/0.1% BSA) prior to use in the bio-procedure.
Preparation of CHO-3D2 Cells; CHO-3D2 cells were plated into 96-well Nunc tissue culture plates at a density of 30,000 cells/well in DMEM/F12 medium (Gibco/BRL, Grand Island, N.Y.) supplemented with 5% Fetal Bovine Serum (Hyclone, Fetal Clone II), 2 mM L-glutamine and penicillin/streptomycin (100 U/mL). Cells were plated one day prior to performing the bio-procedure.
Procedure: On the day of procedure, the wells were washed two times with 100 ul/well of pre-warmed (37 deg C.) procedure medium. After aspirating the second wash, an additional 100 ul of procedure medium was added to each well and the cells pre-incubated for 30-45 minutes at 37 deg C. In a humidified incubator with 5%CO2/95% air. The cells were then challenged with varying dilutions of the test substance(s) in a 50 ul total incubation volume in procedure medium for 30 minutes at 37 deg C. in the humidified incubator. The challenge was terminated by the addition of 50 ul of 0.2 N HCl to each well. CAMP accumulation in the medium was measured by radioimmunoassay.
Test Groups: In the 96-well format, the plate is organized into 12 columns each containing 8 rows of wells. The plate was split in half to test a single compound in both agonist and antagonist mode on the same plate.
For agonist mode, compounds were tested using 5 different concentrations in a dose-response paradigm using one column as a control (challenge medium alone) in agonist mode.
The 96-well format allowed for the capability to test 4 columns of compound, using one of the remaining columns for negative control (challenge medium alone) and the other remaining column for ampositive control (ED20 of FSH alone).
The doses chosen to test each compound were extrapolated from the initial screening process (receptor binding data). Along with the test compounds, FSH was run in agonist mode using doses ranging from 0.1 ng/mL-1000 ng/mL as a postive control. Cytotoxicity of the compounds were screened by treating cells with the highest concentration of each compound used in the cAMP procedure for 30 minutes followed by washing of the cells 2 times with 100 ul PBS. The cells were then incubated for 5 min at 37 deg C. in the presence of 50 ug/mL Fluorescein diacetate and 20 ug/mL Propidium iodide in 100 ul PBS. The cells were washed two times with 100 ul PBS followed by examination of the cells under a fluorescence microscope using a 490 nm filter. Viable cells stained green throughout, while dead cells had red fluorescent nuclei.
Analysis of Results: cAMP accumulation was expressed as fmol/mL. […] Data were analyzed statistically by analysis of variance and significant differences between treatments and control determined by Dunnett's test. In antagonist mode, a Duncan's test was used.
Reference Compounds: Test compounds were compared to the effect of purified or recombinant human FSH.

FSH receptor [4] = molecular target: T2, FSH receptor (Rattus norvegicus, UniProt P20395); conditions: literature report; cited from earlier work
T2 construct: endogenous in cells; host or cells: primary ovarian granulosa cells of DES-treated immature Sprague-Dawley rats
T2 sequence (P20395 18-692): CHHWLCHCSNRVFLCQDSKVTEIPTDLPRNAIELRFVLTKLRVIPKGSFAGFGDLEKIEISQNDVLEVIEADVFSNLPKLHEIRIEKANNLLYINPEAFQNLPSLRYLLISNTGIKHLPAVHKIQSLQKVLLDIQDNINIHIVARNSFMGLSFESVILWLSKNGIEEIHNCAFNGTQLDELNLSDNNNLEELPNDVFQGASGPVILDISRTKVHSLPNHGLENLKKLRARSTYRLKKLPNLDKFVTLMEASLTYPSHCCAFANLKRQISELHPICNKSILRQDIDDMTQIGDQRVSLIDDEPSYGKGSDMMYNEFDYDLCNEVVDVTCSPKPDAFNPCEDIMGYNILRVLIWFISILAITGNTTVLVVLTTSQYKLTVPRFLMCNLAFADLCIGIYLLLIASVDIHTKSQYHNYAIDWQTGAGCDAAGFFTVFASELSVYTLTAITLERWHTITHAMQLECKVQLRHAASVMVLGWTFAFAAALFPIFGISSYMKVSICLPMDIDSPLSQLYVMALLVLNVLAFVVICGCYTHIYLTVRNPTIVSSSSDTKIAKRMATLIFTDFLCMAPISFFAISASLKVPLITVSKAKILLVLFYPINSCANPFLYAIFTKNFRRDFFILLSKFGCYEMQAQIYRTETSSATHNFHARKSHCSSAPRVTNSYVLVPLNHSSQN

For CSc1ccc(C(=O)Nc2ccc(/C=C/c3ccc(NC(=O)c4ccc(SC)c(S(=O)(=O)N5CCOCC5)c4)cc3S(=O)(=O)OC(C)C)c(S(=O)(=O)OC(C)C)c2)cc1S(=O)(=O)N1CCOCC1 [Example 27k, 2,2′-[(E)-1,2-Ethenediyl]bis[5-[[4-(methylthio)-3-(4-morpholinylsulfonyl)benzoyl]amino]benzenesulfonic Acid], Bis(1-methylethyl) Ester], the “IC50 (mg/Kg) ovaries” value ([1]; ip) was 1.1 mg/kg, the “IC50 (mg/Kg) uterus” value ([1]; ip) was 0.5 mg/kg and the “IC50 (mg/Kg) ovaries” value ([1]; po) was 4.8 mg/kg. For the same compound, the “IC50 (mg/Kg) uterus” value ([1]; po) was 1.9 mg/kg.

With CC(C)OS(=O)(=O)c1cc(NC(=O)c2ccc(S(C)(=O)=O)c([N+](=O)[O-])c2)ccc1/C=C/c1ccc(NC(=O)c2ccc(S(C)(=O)=O)c([N+](=O)[O-])c2)cc1S(=O)(=O)OC(C)C [Example 27m, 2,2′-[(E)-1,2-Ethenediyl]bis[5-[[(4-methylsulfonyl)-3-(nitro)-benzoyl]amino]benzenesulfonic Acid], Bis(1-methylethyl) Ester] the “IC50 (mg/Kg) ovaries” value ([1]; po) was 8.4 mg/kg and the “IC50 (mg/Kg) uterus” value ([1]; po) was 7.9 mg/kg.

In the case of CCS(=O)(=O)c1ccc(C(=O)Nc2ccc(/C=C/c3ccc(NC(=O)c4ccc(S(=O)(=O)CC)cc4)cc3S(=O)(=O)OC(C)C)c(S(=O)(=O)OC(C)C)c2)cc1 [Example 27z, 2,2′-[(E)-1,2-Ethenediyl]bis[5-[[4-(ethylsulfonyl)benzoyl]amino]benzenesulfonic acid], Bis(1-methylethyl) Ester], the “IC50 (mg/Kg) ovaries” value ([1]; po) is reported as over 10 mg/kg and the “IC50 (mg/Kg) uterus” value ([1]; po) is reported as 10 mg/kg.

In the case of O=C(CS(=O)(=O)c1ccc(C(=O)Nc2ccc(/C=C/c3ccc(NC(=O)c4ccc(S(=O)(=O)CC(=O)NCCO)cc4)cc3S(=O)(=O)O)c(S(=O)(=O)O)c2)cc1)NCCO [Example 37a, 5-[[4-[[2-[(2-Hydroxyethyl)amino]-2-oxoethyl]sulfonyl]benzoyl]amino]-2-[(E)-2-[4-[[4-[[2-[(2-hydroxyethyl)amino]-2-oxoethyl]sulfonyl]benzoyl]amino]-2-sulfo-phenyl]ethenyl]benzenesulfonic Acid], the IC50 (FSH receptor [2]) is reported as 2 µM and the IC50 (FSH receptor [3]) is reported as 2.1 µM.

In the case of NC(=O)CS(=O)(=O)c1ccc(C(=O)Nc2ccc(/C=C/c3ccc(NC(=O)c4ccc(S(=O)(=O)CC(N)=O)cc4)cc3S(=O)(=O)O)c(S(=O)(=O)O)c2)cc1 [Example 37b, 5-[[4-[(2-Amino-2-oxoethyl)sulfonyl]benzoyl]amino]-2-[(E)-2-[4-[[4-[(2-amino-2-oxoethyl)sulfonyl]benzoyl]amino]-2-sulfophenyl]ethenyl]-benzenesulfonic Acid], the IC50 (FSH receptor [2]) is reported as 2.9 µM and the IC50 (FSH receptor [3]) is reported as 1.2 µM.

Compound COCCOc1ccc(C(=O)Nc2ccc(/C=C/c3ccc(NC(=O)c4ccc(OC)c(S(=O)(=O)N5CCOCC5)c4)cc3S(=O)(=O)O)c(S(=O)(=O)O)c2)cc1 [Example 42, 5-[[4-(2-Methoxyethoxy)benzoyl]amino]-2-[(E)-2-[4-[[4-methoxy-3-(4-morpholinylsulfonyl)benzoyl]amino]-2-sulfo-phenyl]ethenyl]benzenesulfonic Acid] has an IC50 (FSH receptor [2]) of 6.9 µM and an IC50 (FSH receptor [3]) of 2.7 µM.

In the case of COc1ccc(C(=O)Nc2ccc(CCc3ccc(NC(=O)c4ccc(OC)c(S(=O)(=O)N5CCCCC5)c4)cc3S(=O)(=O)O)c(S(=O)(=O)O)c2)cc1S(=O)(=O)N1CCCCC1 [Example 43b], the IC50 (FSH receptor [2]) is reported as 17 µM and the IC50 (FSH receptor [3]) is reported as 28 µM.

With O=C(Nc1ccc(CCc2ccc(NC(=O)c3cccc(S(=O)(=O)N4CCOCC4)c3)cc2S(=O)(=O)O)c(S(=O)(=O)O)c1)c1cccc(S(=O)(=O)N2CCOCC2)c1 [Example 43d] the IC50 (FSH receptor [2]) was 12 µM and the IC50 (FSH receptor [3]) was 13 µM.

For COCCOc1ccc(C(=O)Nc2ccc(CCc3ccc(NC(=O)c4ccc(OCCOC)c(S(=O)(=O)N5CCOCC5)c4)cc3S(=O)(=O)O)c(S(=O)(=O)O)c2)cc1S(=O)(=O)N1CCOCC1 [Example 43f, 2,2′-(1,2-Ethanediyl)bis[5-[[4-(2-methoxyethoxy)-3-(4-morpholinylsulfony)benzoyl]amino]benzenesulfonc Acid]], the IC50 (FSH receptor [2]) was 5 µM and the IC50 (FSH receptor [3]) was 6.4 µM.

COc1ccc(C(=O)Nc2ccc(CCc3ccc(NC(=O)c4ccc(OC)c(S(=O)(=O)N5CCCC5)c4)cc3S(=O)(=O)O)c(S(=O)(=O)O)c2)cc1S(=O)(=O)N1CCCC1 [Example 43g, 2,2′-(1,2-Ethanediyl)bis[5-[[4-methoxy-3-(1-pyrrolidinylsulfonyl)benzoyl]amino]benzenesulfonic Acid]] gave an IC50 (FSH receptor [2]) of 7 µM and an IC50 (FSH receptor [3]) of 12 µM.

In the case of COCCOc1ccc(C(=O)Nc2ccc(CCc3ccc(NC(=O)c4ccc(OC)c(S(=O)(=O)N5CCOCC5)c4)cc3S(=O)(=O)O)c(S(=O)(=O)O)c2)cc1 [Example 43h, 5-[[4-(2-Methoxyethoxy)benzoyl]amino]-2-[2-[4-[[4-methoxy-3-(4-morpholinylsulfonyl)benzoyl]amino]-2-sulfophenyl]ethyl]benzenesulfonic Acid], the IC50 (FSH receptor [2]) is reported as 12 µM and the IC50 (FSH receptor [3]) is reported as 12 µM.

In the case of Cc1ccc(C(=O)Nc2ccc(S(=O)(=O)O)c3cc(S(=O)(=O)O)cc(S(=O)(=O)O)c23)cc1NC(=O)c1cccc(NC(=O)Nc2cccc(C(=O)Nc3cc(C(=O)Nc4ccc(S(=O)(=O)O)c5cc(S(=O)(=O)O)cc(S(=O)(=O)O)c45)ccc3C)c2)c1 [suramin, Suramin Sodium], the “inhibition of FSH binding to its receptor” value (FSH receptor [4]) is given as “inhibit FSH binding to its receptor”.
